Test results from US10793568B2, “Hormone receptor modulators for treating metabolic conditions and disorders” (ARDELYX, INC., priority 2016, dated 2020).

Biological target: ligand binding domain of human FXR (Homo sapiens (Human), UniProt Q96RI1)
Test: FXR ligand binding assay (LanthaScreen TR-FRET, SRC2-2 peptide recruitment)
Details: for pEC50: -log EC50, concentration required to produce 50% activation; for Emax: extent of activation relative to GW4064, read-out: % Efficacy
Method: The affinity of FXR ligands for the ligand binding domain of FXR was determined using a commercially available human FXR ligand binding assay (LanthaScreen, Thermofisher Cat # PV4833). […] Binding of FXR ligands to the FXR ligand binding domain promotes binding of the fluorescein-labelled SRC2-2 peptide. This causes a FRET signal between the terbium-labelled anti-GST antibody and the fluorescein-labelled SRC peptide which are both bound to the FXR ligand binding domain.
Test compounds are dissolved in DMSO and a 3-fold serial dilution series is generated, then further diluted into assay buffer. The compounds are mixed with 5 nM GST-tagged FXR ligand binding domain, 5 nM Tb-labelled anti-GST antibody and 500 nM fluorescein-labelled SRC2-2 peptide in a pH7.4 buffer. The reaction is incubated at room temperature for 1 hour, then the FRET signal is measured as the ratio of the 520 nm/495 nm emission following excitation at 340 nm. The change in FRET signal is plotted against the test article concentration and fit to a 3-parameter logistical equation. The concentration required to produce 50% activation is expressed as pEC50 (−log EC50), and the extent of activation is expressed relative to GW4064 as % activation.

Sequence of ligand binding domain of human FXR (Q96RI1 262-486): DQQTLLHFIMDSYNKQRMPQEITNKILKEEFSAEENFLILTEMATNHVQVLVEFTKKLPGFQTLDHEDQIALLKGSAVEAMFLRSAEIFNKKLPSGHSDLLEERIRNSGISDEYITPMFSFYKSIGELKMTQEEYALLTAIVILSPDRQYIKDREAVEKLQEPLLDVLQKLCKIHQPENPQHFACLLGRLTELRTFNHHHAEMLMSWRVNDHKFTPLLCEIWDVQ

SMILES	pEC50	Emax [%]
CC[C@@H]1[C@@H]2C[C@@H](C[C@H]2OCc2c(-c3c(Cl)cccc3Cl)noc2C2CC2)N1c1ccc(C(=O)O)cc1 [Compound I-365, 4-[(1S,3R,4S,5R)-5-[[5-cyclopropyl-3-(2,6-dichlorophenyl)-1,2-oxazol-4-yl]methoxy]-3-ethyl-2-azabicyclo[2.2.1]heptan-2-yl]benzoic acid]	6.4	67
O=C(O)CCc1ncc(N2C(=O)[C@@H]3C[C@H]2C[C@H]3OCc2c(-c3c(Cl)cccc3Cl)noc2C2CC2)cc1F [Compound I-328, 3-{5-[(1S,4R,5R)-5-{[5-cyclopropyl-3-(2,6-dichlorophenyl)-1,2-oxazol-4-yl]methoxy}-3-oxo-2-azabicyclo[2.2.1]heptan-2-yl]-3-fluoropyridin-2-yl}propanoic Acid]	6.9	87
O=C(O)CCc1ccc(N2C(=O)[C@@H]3C[C@H]2C[C@H]3OCc2c(-c3c(Cl)cccc3Cl)noc2C2CC2)cn1 [Compound I-327, 3-{5-[(1S,4R,5R)-5-{[5-cyclopropyl-3-(2,6-dichlorophenyl)-1,2-oxazol-4-yl]methoxy}-3-oxo-2-azabicyclo[2.2.1]heptan-2-yl]pyridin-2-yl}propanoic Acid]	>5.5	–
C[C@@H]1[C@@H]2C[C@@H](C[C@H]2OCc2c(-c3c(Cl)cccc3Cl)noc2C2CC2)N1c1ccc(C(=O)NS(=O)(=O)C2CCOCC2)cn1 [Compound I-373, 6-[(1S,3R,4S,5R)-5-[[5-cyclopropyl-3-(2,6-dichlorophenyl)-1,2-oxazol-4-yl]methoxy]-3-methyl-2-azabicyclo[2.2.1]heptan-2-yl]-N-(oxane-4-sulfonyl)pyridine-3-carboxamide]	7.2	62
C[C@H]1[C@H]2C[C@H](C[C@@H]2OCc2c(-c3c(Cl)cccc3Cl)noc2C2CC2)N1c1ccc(C(=O)O)cn1 [Compound I-370, 6-[(1R,3S,4R,5S)-5-[[5-cyclopropyl-3-(2,6-dichlorophenyl)-1,2-oxazol-4-yl]methoxy]-3-methyl-2-azabicyclo[2.2.1]heptan-2-yl]pyridine-3-carboxylic acid]	4.5	79
O=C(O)c1ncc(N2C(=O)[C@@H]3C[C@H]2C[C@H]3OCc2c(-c3c(Cl)cccc3Cl)noc2C2CC2)cn1 [Compound I-323, 5-[(1S,4R,5R)-5-{[5-cyclopropyl-3-(2,6-dichlorophenyl)-1,2-oxazol-4-yl]methoxy}-3-oxo-2-azabicyclo[2.2.1]heptan-2-yl]pyrimidine-2-carboxylic Acid]	6.4	103
O=C(NS(=O)(=O)[C@@H]1CCC[C@H]1O)c1ccc(N2C(=O)[C@@H]3C[C@H]2C[C@H]3OCc2c(-c3c(Cl)cccc3Cl)noc2C2CC2)cn1 [Compound I-350, 5-[(1S,4R,5R)-5-{[5-cyclopropyl-3-(2,6-dichlorophenyl)-1,2-oxazol-4-yl]methoxy}-3-oxo-2-azabicyclo[2.2.1]heptan-2-yl]-N-{[(1R,2R)-2-hydroxycyclopentyl]sulfonyl}pyridine-2-carboxamide]	8.1	170
C[C@H]1[C@H]2C[C@H](C[C@@H]2OCc2c(-c3c(Cl)cccc3Cl)noc2C2CC2)N1c1ccc(C(=O)O)cc1F [Compound I-364, 4-[(1R,3S,4R,5S)-5-{[5-cyclopropyl-3-(2,6-dichlorophenyl)-1,2-oxazol-4-yl]methoxy}-3-methyl-2-azabicyclo[2.2.1]heptan-2-yl]-3-fluorobenzoic Acid]	6.3	47
O=C(NS(=O)(=O)C1CCCC1)c1ncc(N2C(=O)[C@@H]3C[C@H]2C[C@H]3OCc2c(-c3c(Cl)cccc3Cl)noc2C2CC2)cc1F [Compound I-356, N-(cyclopentylsulfonyl)-5-((1S,4R,5R)-5-((5-cyclopropyl-3-(2,6-dichlorophenyl)isoxazol-4-yl)methoxy)-3-oxo-2-azabicyclo[2.2.1]heptan-2-yl)-3-fluoropicolinamide]	8.6	168
O=C(NS(=O)(=O)C1CC1)c1ncc(N2C(=O)[C@@H]3C[C@H]2C[C@H]3OCc2c(-c3c(Cl)cccc3Cl)noc2C2CC2)cc1F [Compound I-355, 5-((1S,4R,5R)-5-((5-cyclopropyl-3-(2,6-dichlorophenyl)isoxazol-4-yl)methoxy)-3-oxo-2-azabicyclo[2.2.1]heptan-2-yl)-N-(cyclopropylsulfonyl)-3-fluoropicolinamide]	7.9	157
C[C@H]1[C@H]2C[C@H](C[C@@H]2OCc2c(-c3c(Cl)cccc3Cl)noc2C2CC2)N1c1ccc(C(=O)NS(=O)(=O)C2CCOCC2)nc1 [Compound I-372, 5-[(1R,3S,4R,5S)-5-[[5-cyclopropyl-3-(2,6-dichlorophenyl)-1,2-oxazol-4-yl]methoxy]-3-methyl-2-azabicyclo[2.2.1]heptan-2-yl]-N-(oxane-4-sulfonyl)pyridine-2-carboxamide]	6.1	22
O=C(O)c1ncc(N2C(=O)[C@@H]3C[C@H]2C[C@H]3OCc2c(-c3c(Cl)cccc3Cl)noc2C2CC2)cc1F [Compound I-326, 5-[(1S,4R,5R)-5-{[5-cyclopropyl-3-(2,6-dichlorophenyl)-1,2-oxazol-4-yl]methoxy}-3-oxo-2-azabicyclo[2.2.1]heptan-2-yl]-3-fluoropyridine-2-carboxylic Acid]	7.1	132
C[C@@H]1[C@@H]2C[C@@H](C[C@H]2OCc2c(-c3c(Cl)cccc3Cl)noc2C2CC2)N1c1ccc(C(=O)O)cc1F [Compound I-363, 4-[(1S,3R,4S,5R)-5-[[5-cyclopropyl-3-(2,6-dichlorophenyl)-1,2-oxazol-4-yl]methoxy]-3-methyl-2-azabicyclo[2.2.1]heptan-2-yl]-3-fluorobenzoic acid]	7.1	61
CO[C@@H]1CCC[C@H]1S(=O)(=O)NC(=O)c1ncc(N2C(=O)[C@@H]3C[C@H]2C[C@H]3OCc2c(-c3c(Cl)cccc3Cl)noc2C2CC2)cc1F [Compound I-348, 5-[(1S,4R,5R)-5-{[5-cyclopropyl-3-(2,6-dichlorophenyl)-1,2-oxazol-4-yl]methoxy}-3-oxo-2-azabicyclo[2.2.1]heptan-2-yl]-3-fluoro-N-{[(1R,2R)-2-methoxycyclopentyl]sulfonyl}pyridine-2-carboxamide]	8	171
C[C@@H]1[C@@H]2C[C@@H](C[C@H]2OCc2c(-c3c(Cl)cccc3Cl)noc2C2CC2)N1c1ccc(C(=O)O)cn1 [Compound I-369, 6-[(1S,3R,4S,5R)-5-[[5-cyclopropyl-3-(2,6-dichlorophenyl)-1,2-oxazol-4-yl]methoxy]-3-methyl-2-azabicyclo[2.2.1]heptan-2-yl]pyridine-3-carboxylic acid]	6.8	50
C[C@H]1[C@H]2C[C@H](C[C@@H]2OCc2c(-c3c(Cl)cccc3Cl)noc2C2CC2)N1c1ccc(C(=O)O)cc1 [Compound I-361, 4-[(1R,3S,4R,5S)-5-[[5-cyclopropyl-3-(2,6-dichlorophenyl)-1,2-oxazol-4-yl]methoxy]-3-methyl-2-azabicyclo[2.2.1]heptan-2-yl]benzoic acid]	6	52
CC1(C)CC(S(=O)(=O)NC(=O)c2ncc(N3C(=O)[C@@H]4C[C@H]3C[C@H]4OCc3c(-c4c(Cl)cccc4Cl)noc3C3CC3)cc2F)CCO1 (stereo partly drawn) [Compound I-357, 5-((1S,4R,5R)-5-((5-cyclopropyl-3-(2,6-dichlorophenyl)isoxazol-4-yl)methoxy)-3-oxo-2-azabicyclo[2.2.1]heptan-2-yl)-N-((2,2-dimethyltetrahydro-2H-pyran-4-yl)sulfonyl)-3-fluoropicolinamide]	8.4	166
O=C(O)c1ccc(N2C(=O)[C@@H]3C[C@H]2C[C@H]3OCc2c(-c3c(Cl)cccc3Cl)noc2C2CC2)nn1 [Compound I-325, 6-[(1S,4R,5R)-5-{[5-cyclopropyl-3-(2,6-dichlorophenyl)-1,2-oxazol-4-yl]methoxy}-3-oxo-2-azabicyclo[2.2.1]heptan-2-yl]pyridazine-3-carboxylic Acid]	6.6	104
O=C(O)c1ccc(N2C(=O)[C@@H]3C[C@H]2C[C@H]3OCc2c(-c3c(Cl)cccc3Cl)noc2C2CC2)nc1 [Compound I-322, 6-[(1S,4R,5R)-5-{[5-cyclopropyl-3-(2,6-dichlorophenyl)-1,2-oxazol-4-yl]methoxy}-3-oxo-2-azabicyclo[2.2.1]heptan-2-yl]pyridine-3-carboxylic acid]	7.4	132
O=C(NS(=O)(=O)C1CC1)c1ccc(N2C(=O)[C@@H]3C[C@H]2C[C@H]3OCc2c(-c3c(Cl)cccc3Cl)noc2C2CC2)cn1 [Compound I-351, 5-((1S,4R,5R)-5-((5-cyclopropyl-3-(2,6-dichlorophenyl)isoxazol-4-yl)methoxy)-3-oxo-2-azabicyclo[2.2.1]heptan-2-yl)-N-(cyclopropylsulfonyl)picolinamide]	7.6	132
C[C@@H]1[C@@H]2C[C@@H](C[C@H]2OCc2c(-c3c(Cl)cccc3Cl)noc2C2CC2)N1c1ccc(C(=O)O)c(F)c1 [Compound I-362, 4-[(1S,3R,4S,5R)-5-[[5-cyclopropyl-3-(2,6-dichlorophenyl)-1,2-oxazol-4-yl]methoxy]-3-methyl-2-azabicyclo[2.2.1]heptan-2-yl]-2-fluorobenzoic acid]	7.2	72
